Assays:
[1] = system: HeLa cells; experiment: Apoptotic Hoechst 33342 assay, HeLa; type: cell-based
Experimental: (§1) A2780, HT-29 and HeLa cancer cell lines were chosen for evaluating the apoptotic effects of eurycomanone and eurycomalactone. The morphological changes of cells undergoing apoptosis were visualised under a fluoresecence microscope after performing the Hoechst 33342 assay. Briefly, 10 × 10^4 cells were seeded for 500 µL/well of four Labtek® Chamber Slides (Thermo Fisher Scientific, Waltham, MA, USA) and incubated in 5% carbon dioxide in air for 24 h for the cells’ attachment. The cells were treated with concentrations of IC50/5, IC50 and IC50 × 5 values of eurycomanone and eurycomalactone in different wells and further incubated for 6, 24 and 48 h, respectively. Nontreated cells were also included in the experimental design, which acted as a negative control in this study. Following this, the media from each well were discarded and cells were fixed with 4% (w/v) paraformaldehyde for 30 min. The cells were then washed with cold phosphate buffer solution (PBS) prior to staining using Hoechst 33342, according to the method of [26]. Quantitative assessment of apoptotic cells were determined by counting apoptotic nuclei from five randomly chosen areas corroborating visual impression based on the morphology shown in Figure 3 and Figure 4. The apoptotic index (number of apoptotic nuclei per total nuclei × 100) was expressed as a percentage of the mean ± S.E.M and analysed using ANOVA followed by Tukey’s multiple comparison test.

[2] = system: liver (WRL-68) normal cell line; experiment: Sulforhodamine B (SRB) cell viability assay, WRL-68; type: cell-based; conditions: Homo sapiens, WRL68, 72 h, read-out: IC50 WRL-68
Text: (§2) The cancer cell lines used for this study were ovarian cancer (A2780), cervical cancer (HeLa) and colorectal cancer (HT29) as well as normal cardiomyocyte (H9C2) and liver (WRL-68) cell lines. All cell lines were purchased from American Type Culture Collections except A2780, which were purchased from the European Collection of Authenticated Cell Cultures. These cells were subcultured in Dulbecco’s Modified Eagle’s medium (Sigma-Aldrich, St. Louis, MO, USA) and supplemented with 10% fetal bovine serum (Sigma, USA), 1% penicillin–streptomycin (Sigma, USA), 1% amphotericin B (Sigma, USA) and 1% gentamicin (Sigma, USA). The cells were seeded in each well of 96 well plates and incubated in a humidified incubator at 37 °C and 5% carbon dioxide in air for 24 h. Each cell line was then treated with eurycomanone and eurycomalactone at five different concentrations (0.08, 0.4, 2, 10 and 50 µM) in triplicate. Cisplatin and methotrexate (Sigma, USA), known chemo-drugs, were also treated on these cell lines at five different concentrations (0.08, 0.4, 2, 10, 50 µM for cisplatin, 0.0008, 0.004, 0.02, 0.1, 0.5 µM for methotrexate) for the comparative studies. The treated cells were then incubated in the same incubator with the mentioned conditions for 72 h. The experiment was repeated at least three times.
(§3) Sulforhodamine B (SRB) assay had been performed after the treated cells were incubated for 72 h. Briefly, 50 μL of ice cold tricholoroacetic acid (TCA) was added to each well and allowed to stand for 30 min at room temperature, followed by rinsing each well with tap water. Then, 100 μL of 0.4% SRB was added to each well to stain living cells for 30 min followed by a rinse with 1% acetic acid. Finally, 100 μL of Tris buffer was added to each well and the optical density (OD) of the treated and nontreated cells were read at 492 nm with a Magellan V.4 microtiter plate reader (Tecan, Salzburg, Austria). The percentage of cell viability was calculated based on (OD492nm of the treated cells/OD492nm of the nontreated cells) × 100. The IC50 values were determined from the dose–response curve of percentage of cell viability versus the concentration of the compounds (μM). Cells viability assay for each treatment was performed in triplicate in at least three independent experiments, and the IC50 values are given as the mean ± SEM.

[3] = system: cardiomyocyte (H9C2) normal cell line; experiment: Sulforhodamine B (SRB) cell viability assay, H9C2; type: cell-based; conditions: Rattus norvegicus, H9c2, 72 h, read-out: IC50 H9C2
Text: as §2, §3

[4] = system: A2780 cells; experiment: Apoptotic Hoechst 33342 assay, A2780; type: cell-based
Experimental: as §1

[5] = system: Cytochrome P450 (CYP) enzymes; set-up: method as in PMID 23881640; conditions: in vitro assay; cited from earlier work
[6] = system: cervical (HeLa) cancer cell line; experiment: Sulforhodamine B (SRB) cell viability assay, HeLa; type: cell-based; conditions: Homo sapiens, HeLa, 72 h, read-out: IC50 HeLa
Text: as §2, §3

[7] = system: ovarian (A2780) cancer cell line; experiment: Sulforhodamine B (SRB) cell viability assay, A2780; type: cell-based; conditions: Homo sapiens, A2780, 72 h, read-out: IC50 A2780
Text: as §2
as §3, with “Briefly,” for “Sulforhodamine B (SRB) assay had been performed after the treated cells were incubated for 72 h. Briefly,”

[8] = system: colorectal (HT29) cancer cell line; experiment: Sulforhodamine B (SRB) cell viability assay, HT-29; type: cell-based; conditions: Homo sapiens, HT-29, 72 h, read-out: IC50 HT-29
Text: as §2, §3

[9] = system: HT-29 cells; experiment: Apoptotic Hoechst 33342 assay, HT-29; type: cell-based
Experimental: as §1

[10] = system: ovarian (A2780), cervical (HeLa) and colorectal (HT29) cancer cells; experiment: SRB assay, range over the three cancer cell lines; type: cell-based; conditions: 72 h, read-out: range of IC50 values in cancer cell lines
Text: as §2
as §3, with “Briefly,” for “Sulforhodamine B (SRB) assay had been performed after the treated cells were incubated for 72 h. Briefly,”, “Cells viability assay for each treatment was performed in triplicate in at least three independent experiments, and the IC50 values are given as the mean ± SEM.” left out

[11] = set-up: method as in PMID 16206032; conditions: in vivo, given orally; cited from earlier work

## C=C1[C@@H](O)[C@]2(O)OC[C@]34[C@H]2[C@@]2(C)[C@H](O)C(=O)C=C(C)[C@@H]2C[C@H]3OC(=O)[C@H](O)[C@@]14O [Eurycomanone]
[1]; IC50, 6 h
  Apoptotic index: 19.98 ± 0.76 ^ab/x %
[1]; IC50, 24 h
  Apoptotic index: 52.57 ± 1.40 ^ab/y %
[1]; IC50, 48 h
  Apoptotic index: 61.16 ± 0.63 ^ab/xz,yz %
[1]; IC50/5, 6 h
  Apoptotic index: 8.42 ± 0.20 ^a/x %
[1]; IC50/5, 24 h
  Apoptotic index: 13.76 ± 1.26 ^a/xy %
[1]; IC50/5, 48 h
  Apoptotic index: 16.79 ± 0.92 ^a/xz,yz %
[1]; IC50 × 5, 6 h
  Apoptotic index: 41.37 ± 0.24 ^ac,bc/x %
[1]; IC50 × 5, 24 h
  Apoptotic index: 94.56 ± 1.16 ^ac,bc/xy %
[1]; IC50 × 5, 48 h
  Apoptotic index: 100.00 ± 0.00 ^ac,bc/xz,yz %
[2]
  IC50: 1.34 ± 0.046 µM
[3]
  IC50: > 50 µM
[4]; A2780, IC50, 6 h
  Apoptotic index: 8.48 ± 0.60 ^ab/x %
[4]; A2780, IC50, 24 h
  Apoptotic index: 13.13 ± 1.30 ^ab/y %
[4]; A2780, IC50, 48 h
  Apoptotic index: 31.74 ± 3.19 ^ab/xz,yz %
[4]; A2780, IC50/5, 6 h
  Apoptotic index: 4.30 ± 0.34 ^a/x %
[4]; A2780, IC50/5, 24 h
  Apoptotic index: 7.11 ± 1.60 ^a/xy %
[4]; A2780, IC50/5, 48 h
  Apoptotic index: 14.72 ± 0.59 ^a/xz,yz %
[4]; A2780, IC50 × 5, 6 h
  Apoptotic index: 13.01 ± 0.29 ^ac,bc/x %
[4]; A2780, IC50 × 5, 24 h
  Apoptotic index: 28.90 ± 0.93 ^ac,bc/xy %
[4]; A2780, IC50 × 5, 48 h
  Apoptotic index: 100.00 ± 0.00 ^ac,bc/xz,yz %
[5]
  inhibition of cytochromes in vitro: no inhibition
[6]
  IC50: 4.58 ± 0.09 µM
[7]
  IC50: 1.37 ± 0.13 µM
[8]
  IC50: 1.22 ± 0.11 µM
[9]; HT-29, IC50, 6 h
  Apoptotic index: 5.24 ± 0.17 ^b/x %
[9]; HT-29, IC50, 24 h
  Apoptotic index: 6.30 ± 1.01 ^b/y %
[9]; HT-29, IC50, 48 h
  Apoptotic index: 14.80 ± 0.56 ^ab/xz,yz %
[9]; HT-29, IC50/5, 6 h
  Apoptotic index: 4.08 ± 0.81 ^a/x %
[9]; HT-29, IC50/5, 24 h
  Apoptotic index: 4.18 ± 0.21 ^a/y %
[9]; HT-29, IC50/5, 48 h
  Apoptotic index: 4.24 ± 0.20 ^a/z %
[9]; HT-29, IC50 × 5, 6 h
  Apoptotic index: 5.97 ± 0.35 ^ac/x %
[9]; HT-29, IC50 × 5, 24 h
  Apoptotic index: 10.95 ± 0.71 ^ac,bc/y %
[9]; HT-29, IC50 × 5, 48 h
  Apoptotic index: 26.20 ± 1.48 ^ac,bc/xz,yz %
[10]
  IC50: 1.22 to 4.58 µM
[11]
  oral bioavailability: poorly bioavailable

Source: PMC10421158, “In Vitro and In Silico Analysis of the Anticancer Effects of Eurycomanone and Eurycomalactone from Eurycoma longifolia” (Plants, 2023)
